Source: ChEMBL document CHEMBL2073998, “Piperine, a major constituent of black pepper, inhibits human P-glycoprotein and CYP3A4” (J Pharmacol Exp Ther, 2002)

Legend:
[1] = biological target: T1, ATP-dependent translocase ABCB1 (Homo sapiens, UniProt P08183); experiment: TP_TRANSPORTER: inhibition of Cyclosporin A transepithelial transport (basal to apical) (Cyclosporin A: 1 uM) in Caco-2 cells; format: functional, cell-based
[2] = biological target: T1, ATP-dependent translocase ABCB1; experiment: TP_TRANSPORTER: inhibition of Digoxin transepithelial transport (basal to apical) (Digoxin: 5 uM) in Caco-2 cells; format: functional, cell-based

T1 sequence (P08183 whole entry): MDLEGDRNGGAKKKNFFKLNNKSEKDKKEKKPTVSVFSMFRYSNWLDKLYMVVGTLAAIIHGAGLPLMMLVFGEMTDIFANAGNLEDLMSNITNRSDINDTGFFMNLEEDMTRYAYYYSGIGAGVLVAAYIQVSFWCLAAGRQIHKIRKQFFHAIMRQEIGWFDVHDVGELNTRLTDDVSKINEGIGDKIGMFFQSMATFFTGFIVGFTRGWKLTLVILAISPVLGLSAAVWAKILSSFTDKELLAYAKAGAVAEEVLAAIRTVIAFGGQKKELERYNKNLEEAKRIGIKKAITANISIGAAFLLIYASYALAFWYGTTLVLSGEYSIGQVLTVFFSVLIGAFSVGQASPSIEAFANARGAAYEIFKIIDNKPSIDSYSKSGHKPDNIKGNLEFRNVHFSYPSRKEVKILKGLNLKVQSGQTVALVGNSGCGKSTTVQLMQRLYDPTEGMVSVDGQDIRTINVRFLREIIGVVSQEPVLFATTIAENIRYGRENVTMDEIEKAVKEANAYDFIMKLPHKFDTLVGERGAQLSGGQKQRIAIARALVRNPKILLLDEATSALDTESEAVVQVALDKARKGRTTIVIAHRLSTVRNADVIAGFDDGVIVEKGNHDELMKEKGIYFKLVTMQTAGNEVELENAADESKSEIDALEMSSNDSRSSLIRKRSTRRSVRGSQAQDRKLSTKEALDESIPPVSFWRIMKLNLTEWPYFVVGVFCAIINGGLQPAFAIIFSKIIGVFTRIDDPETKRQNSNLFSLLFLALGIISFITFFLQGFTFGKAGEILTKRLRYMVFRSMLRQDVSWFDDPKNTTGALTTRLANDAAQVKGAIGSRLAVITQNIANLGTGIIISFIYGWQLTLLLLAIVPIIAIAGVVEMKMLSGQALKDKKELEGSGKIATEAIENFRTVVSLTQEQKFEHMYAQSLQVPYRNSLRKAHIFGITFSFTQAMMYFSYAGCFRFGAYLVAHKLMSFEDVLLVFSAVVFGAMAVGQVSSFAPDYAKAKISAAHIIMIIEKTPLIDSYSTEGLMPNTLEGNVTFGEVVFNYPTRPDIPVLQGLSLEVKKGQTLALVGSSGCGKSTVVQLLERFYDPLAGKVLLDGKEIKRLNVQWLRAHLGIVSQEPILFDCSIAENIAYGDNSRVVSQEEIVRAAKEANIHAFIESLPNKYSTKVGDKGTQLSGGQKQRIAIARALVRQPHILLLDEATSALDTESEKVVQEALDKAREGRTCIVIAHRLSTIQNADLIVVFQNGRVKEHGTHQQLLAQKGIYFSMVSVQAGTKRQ

IC50 [1]: 74.1 µM
IC50 [2]: 15.5 µM
SMILES: O=C(/C=C/C=C/c1ccc2c(c1)OCO2)N1CCCCC1 [PIPERINE]
